In ChEMBL document CHEMBL1681715, “4-aminopyrimidine-5-carbaldehyde oximes as potent VEGFR-2 inhibitors. Part II” (Bioorg Med Chem Lett, 2011):
Each block holds one compound with its values, some of them ahead of it. Activity calls are given as the source filed them. The calls are words filed in the database; no cut-off is given here.

Tests used:
[1] = target: Vascular endothelial growth factor receptor 2 (Homo sapiens, UniProt P35968)
[2] = system: Mus musculus; assay: AUC in BALB/c mouse at 10 mg/kg, po; type: ADME, organism-based, Plasma; parameters: dose 10 mg/kg, route oral; conditions: in vivo
[3] = target: T1, Receptor-type tyrosine-protein kinase FLT3 (Homo sapiens, UniProt P36888); assay: Inhibition of FLT3
T1 sequence (P36888 whole entry): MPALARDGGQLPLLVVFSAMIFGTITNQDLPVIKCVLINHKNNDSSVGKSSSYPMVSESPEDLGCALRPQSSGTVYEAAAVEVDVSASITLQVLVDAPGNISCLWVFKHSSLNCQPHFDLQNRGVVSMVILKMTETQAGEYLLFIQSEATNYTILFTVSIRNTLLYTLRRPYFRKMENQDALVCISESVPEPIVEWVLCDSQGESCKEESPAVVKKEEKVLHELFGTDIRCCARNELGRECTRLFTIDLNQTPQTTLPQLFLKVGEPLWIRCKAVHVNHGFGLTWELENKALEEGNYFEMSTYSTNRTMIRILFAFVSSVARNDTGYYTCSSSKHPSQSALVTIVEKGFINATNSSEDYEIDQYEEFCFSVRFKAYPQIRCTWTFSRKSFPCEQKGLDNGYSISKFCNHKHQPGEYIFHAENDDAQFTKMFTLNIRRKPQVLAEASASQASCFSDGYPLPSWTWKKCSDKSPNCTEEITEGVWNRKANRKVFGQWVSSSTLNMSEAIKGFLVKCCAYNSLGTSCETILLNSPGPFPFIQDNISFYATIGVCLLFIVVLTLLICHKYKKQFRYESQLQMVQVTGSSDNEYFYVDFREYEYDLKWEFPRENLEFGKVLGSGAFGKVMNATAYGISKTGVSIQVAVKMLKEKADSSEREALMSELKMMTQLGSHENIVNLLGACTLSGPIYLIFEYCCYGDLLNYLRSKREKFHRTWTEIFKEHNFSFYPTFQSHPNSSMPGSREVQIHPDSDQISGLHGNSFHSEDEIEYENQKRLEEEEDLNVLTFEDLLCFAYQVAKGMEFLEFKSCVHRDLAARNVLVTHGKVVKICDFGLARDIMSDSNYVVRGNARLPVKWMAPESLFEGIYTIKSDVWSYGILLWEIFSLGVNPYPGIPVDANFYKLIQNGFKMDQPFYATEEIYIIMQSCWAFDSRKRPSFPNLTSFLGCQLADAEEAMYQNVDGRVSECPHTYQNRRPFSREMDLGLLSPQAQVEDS

[4] = system: A-375; assay: Antiproliferative activity against human A375 cells at 100 uM; type: functional, cell-based
[5] = system: Rattus norvegicus; assay: Oral bioavailability in rat at 10 mg/kg; type: ADME, organism-based; conditions: in vivo
[6] = system: Mus musculus; assay: Toxicity in mouse assessed as body weight at 100 to 200 mg/kg, po after 24 days; type: organism-based; parameters: dose 100-200 mg/kg, route oral; conditions: in vivo, 576 h
[7] = Cmax in rat at 10 mg/kg, po; type: ADME, organism-based; parameters: dose 10 mg/kg, route oral; conditions: in vivo
[8] = Half life in BALB/c mouse at 10 mg/kg, po; type: ADME, organism-based; parameters: dose 10 mg/kg, route oral; conditions: in vivo
[9] = Clearance in BALB/c mouse at 2 mg/kg, iv; type: ADME, organism-based; parameters: dose 2 mg/kg, route intravenous; conditions: in vivo
[10] = Half life in rat at 10 mg/kg, po; type: ADME, organism-based; parameters: dose 10 mg/kg, route oral; conditions: in vivo
[11] = system: Mus musculus; assay: AUC in BALB/c mouse at 2 mg/kg, iv; type: ADME, organism-based, Plasma; parameters: dose 2 mg/kg, route intravenous; conditions: in vivo
[12] = target: Vascular endothelial growth factor receptor 1 (Homo sapiens, UniProt P17948); assay: Inhibition of FLT1
[13] = system: HCT-116; assay: Antiproliferative activity against human HCT116 cells at 100 uM; type: functional, cell-based
[14] = system: HCT-116; assay: Antitumor activity against human HCT116 cells xenografted mouse model measured at 100 to 200 mg/kg, po after 10 to 14 days; type: functional
[15] = Clearance in rat at 2 mg/kg, iv; type: ADME, organism-based; parameters: dose 2 mg/kg, route intravenous; conditions: in vivo
[16] = target: Mast/stem cell growth factor receptor Kit (Homo sapiens, UniProt P10721); assay: Inhibition of KIT
[17] = system: HCT-116; assay: Antitumor activity against human HCT116 cells xenografted po dosed mouse model measured after 10 to 14 days; type: functional, organism-based
[18] = Half life in rat at 2 mg/kg, iv; type: ADME, organism-based; parameters: dose 2 mg/kg, route intravenous; conditions: in vivo
[19] = system: Rattus norvegicus; assay: AUC in rat at 2 mg/kg, iv; type: ADME, organism-based, Plasma; parameters: dose 2 mg/kg, route intravenous; conditions: in vivo
[20] = Half life in BALB/c mouse at 2 mg/kg, iv; type: ADME, organism-based; parameters: dose 2 mg/kg, route intravenous; conditions: in vivo
[21] = system: A-431; assay: Antitumor activity against human A431 cells xenografted po dosed mouse model measured after 10 to 14 days; type: functional, organism-based
[22] = system: Mus musculus; assay: Oral bioavailability in BALB/c mouse at 10 mg/kg; type: ADME, organism-based; conditions: in vivo
[23] = Cmax in BALB/c mouse at 2 mg/kg, iv; type: ADME, organism-based; parameters: dose 2 mg/kg, route intravenous; conditions: in vivo
[24] = Volume of distribution at steady state in BALB/c mouse at 2 mg/kg, iv; type: ADME, organism-based; parameters: dose 2 mg/kg, route intravenous; conditions: in vivo, read-out: Vdss
[25] = Cmax in BALB/c mouse at 10 mg/kg, po; type: ADME, organism-based; parameters: dose 10 mg/kg, route oral; conditions: in vivo
[26] = system: A-375; assay: Antitumor activity against human A375 cells xenografted mouse model assessed as growth inhibition at 100 mg/kg, po; type: functional
[27] = system: A-431; assay: Antitumor activity against human A431 cells xenografted mouse model measured at 100 to 200 mg/kg, po after 10 to 14 days; type: functional
[28] = Volume of distribution at steady state in rat at 2 mg/kg, iv; type: ADME, organism-based; parameters: dose 2 mg/kg, route intravenous; conditions: in vivo, read-out: Vdss
[29] = Cmax in rat at 2 mg/kg, iv; type: ADME, organism-based; parameters: dose 2 mg/kg, route intravenous; conditions: in vivo

Chain of Vascular endothelial growth factor receptor 2 (P35968 whole entry): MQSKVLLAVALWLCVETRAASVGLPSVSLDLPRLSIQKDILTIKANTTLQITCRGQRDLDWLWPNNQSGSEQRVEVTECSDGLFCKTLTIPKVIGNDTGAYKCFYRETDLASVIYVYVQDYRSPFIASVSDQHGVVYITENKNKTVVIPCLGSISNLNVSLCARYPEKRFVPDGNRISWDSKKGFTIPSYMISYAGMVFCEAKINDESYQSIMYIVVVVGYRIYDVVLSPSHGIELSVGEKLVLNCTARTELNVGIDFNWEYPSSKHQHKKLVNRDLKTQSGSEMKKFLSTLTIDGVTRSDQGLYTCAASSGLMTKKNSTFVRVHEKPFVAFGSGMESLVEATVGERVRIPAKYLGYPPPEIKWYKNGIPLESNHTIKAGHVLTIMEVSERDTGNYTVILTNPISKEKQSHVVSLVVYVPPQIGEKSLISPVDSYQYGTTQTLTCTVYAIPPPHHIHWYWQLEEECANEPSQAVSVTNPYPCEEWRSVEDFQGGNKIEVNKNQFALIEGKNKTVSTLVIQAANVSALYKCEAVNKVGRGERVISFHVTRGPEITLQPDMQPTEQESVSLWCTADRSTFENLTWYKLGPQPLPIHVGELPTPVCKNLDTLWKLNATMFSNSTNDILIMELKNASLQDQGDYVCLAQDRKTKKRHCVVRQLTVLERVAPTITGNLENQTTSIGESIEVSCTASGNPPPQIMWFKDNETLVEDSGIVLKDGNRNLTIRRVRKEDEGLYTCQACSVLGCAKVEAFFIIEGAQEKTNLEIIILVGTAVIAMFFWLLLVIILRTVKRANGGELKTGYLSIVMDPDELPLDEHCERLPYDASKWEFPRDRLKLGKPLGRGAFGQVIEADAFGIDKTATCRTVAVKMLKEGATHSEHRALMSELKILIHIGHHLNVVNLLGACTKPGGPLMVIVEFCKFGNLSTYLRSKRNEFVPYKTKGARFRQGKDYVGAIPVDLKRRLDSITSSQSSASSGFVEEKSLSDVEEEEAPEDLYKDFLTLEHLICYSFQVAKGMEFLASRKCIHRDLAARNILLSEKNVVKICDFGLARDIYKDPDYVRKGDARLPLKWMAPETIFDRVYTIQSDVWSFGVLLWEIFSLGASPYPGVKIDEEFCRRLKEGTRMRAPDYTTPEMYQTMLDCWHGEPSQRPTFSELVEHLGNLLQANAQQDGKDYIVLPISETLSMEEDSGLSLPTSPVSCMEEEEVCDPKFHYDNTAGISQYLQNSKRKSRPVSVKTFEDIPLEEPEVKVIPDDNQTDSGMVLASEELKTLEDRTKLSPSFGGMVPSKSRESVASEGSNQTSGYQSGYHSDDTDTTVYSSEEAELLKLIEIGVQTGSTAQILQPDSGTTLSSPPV
Chain of Vascular endothelial growth factor receptor 1 (P17948 whole entry): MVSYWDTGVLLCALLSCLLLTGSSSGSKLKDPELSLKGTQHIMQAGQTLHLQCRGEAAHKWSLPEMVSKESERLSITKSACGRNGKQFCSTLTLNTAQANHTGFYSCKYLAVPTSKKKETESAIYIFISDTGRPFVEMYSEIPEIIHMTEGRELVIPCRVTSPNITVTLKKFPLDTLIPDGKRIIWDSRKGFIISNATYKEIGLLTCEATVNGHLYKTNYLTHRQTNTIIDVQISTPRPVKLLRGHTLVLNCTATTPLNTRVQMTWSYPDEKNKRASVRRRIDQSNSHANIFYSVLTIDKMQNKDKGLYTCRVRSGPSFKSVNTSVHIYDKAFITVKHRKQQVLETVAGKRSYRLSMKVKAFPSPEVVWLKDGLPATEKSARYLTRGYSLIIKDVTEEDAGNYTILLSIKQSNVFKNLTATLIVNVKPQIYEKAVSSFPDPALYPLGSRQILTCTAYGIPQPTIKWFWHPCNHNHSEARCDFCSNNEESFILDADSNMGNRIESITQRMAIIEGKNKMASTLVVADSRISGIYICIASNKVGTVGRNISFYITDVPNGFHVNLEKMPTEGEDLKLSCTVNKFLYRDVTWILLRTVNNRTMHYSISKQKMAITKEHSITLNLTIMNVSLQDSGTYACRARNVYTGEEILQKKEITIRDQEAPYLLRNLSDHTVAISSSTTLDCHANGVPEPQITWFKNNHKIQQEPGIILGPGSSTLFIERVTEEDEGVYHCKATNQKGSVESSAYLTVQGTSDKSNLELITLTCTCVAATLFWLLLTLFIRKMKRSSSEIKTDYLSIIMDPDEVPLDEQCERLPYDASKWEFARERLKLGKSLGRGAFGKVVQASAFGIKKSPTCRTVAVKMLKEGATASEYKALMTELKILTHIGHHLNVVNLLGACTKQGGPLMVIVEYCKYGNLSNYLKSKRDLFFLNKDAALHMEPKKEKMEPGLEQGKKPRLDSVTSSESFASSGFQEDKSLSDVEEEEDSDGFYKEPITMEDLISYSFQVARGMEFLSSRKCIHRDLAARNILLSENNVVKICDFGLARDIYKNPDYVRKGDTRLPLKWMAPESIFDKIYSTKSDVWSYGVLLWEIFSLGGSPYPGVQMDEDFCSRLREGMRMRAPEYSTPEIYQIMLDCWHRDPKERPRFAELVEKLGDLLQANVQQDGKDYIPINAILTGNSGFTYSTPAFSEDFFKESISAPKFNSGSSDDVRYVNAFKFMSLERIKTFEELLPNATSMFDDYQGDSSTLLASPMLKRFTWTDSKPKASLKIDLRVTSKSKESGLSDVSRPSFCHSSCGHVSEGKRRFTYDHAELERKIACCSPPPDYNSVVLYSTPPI
Chain of Mast/stem cell growth factor receptor Kit (P10721 whole entry): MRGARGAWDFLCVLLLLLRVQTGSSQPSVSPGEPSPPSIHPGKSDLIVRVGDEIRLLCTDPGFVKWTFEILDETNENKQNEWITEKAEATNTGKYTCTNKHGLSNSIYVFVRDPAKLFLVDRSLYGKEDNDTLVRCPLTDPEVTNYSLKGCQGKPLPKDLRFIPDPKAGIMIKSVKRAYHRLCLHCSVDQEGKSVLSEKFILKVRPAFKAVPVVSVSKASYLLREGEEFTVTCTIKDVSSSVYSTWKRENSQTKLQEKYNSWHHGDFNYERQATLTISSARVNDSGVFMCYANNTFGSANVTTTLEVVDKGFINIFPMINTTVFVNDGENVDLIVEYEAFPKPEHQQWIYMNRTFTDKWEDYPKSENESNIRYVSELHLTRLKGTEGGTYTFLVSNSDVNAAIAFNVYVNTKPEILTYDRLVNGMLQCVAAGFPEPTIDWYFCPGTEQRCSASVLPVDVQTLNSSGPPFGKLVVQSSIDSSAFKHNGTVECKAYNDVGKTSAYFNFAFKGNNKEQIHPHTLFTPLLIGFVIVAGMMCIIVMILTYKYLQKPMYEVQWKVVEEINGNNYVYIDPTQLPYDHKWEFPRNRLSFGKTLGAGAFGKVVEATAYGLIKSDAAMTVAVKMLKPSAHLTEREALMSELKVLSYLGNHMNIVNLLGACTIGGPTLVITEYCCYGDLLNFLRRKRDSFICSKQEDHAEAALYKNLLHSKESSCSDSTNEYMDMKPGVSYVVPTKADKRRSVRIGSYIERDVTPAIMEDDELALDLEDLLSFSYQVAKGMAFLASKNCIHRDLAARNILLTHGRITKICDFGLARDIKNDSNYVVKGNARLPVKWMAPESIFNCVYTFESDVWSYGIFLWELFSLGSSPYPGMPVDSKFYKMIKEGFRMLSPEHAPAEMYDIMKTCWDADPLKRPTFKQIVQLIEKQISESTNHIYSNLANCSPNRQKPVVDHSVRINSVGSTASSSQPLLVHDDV

IC50 [1]: 1.7 nM
SMILES: CO/N=C/c1c(N)ncnc1Oc1ccc(NC(=O)Nc2cccc(F)c2)c(Cl)c1

IC50 [1]: 3 nM
SMILES: CO/N=C/c1c(N)ncnc1Oc1ccc(NC(=O)Nc2ccccc2)c(Cl)c1

IC50 [1]: 3 nM
SMILES: CO/N=C/c1c(N)ncnc1Oc1ccc(NC(=O)Nc2ccc(F)cc2F)c(Cl)c1

IC50 [1]: 285 nM
SMILES: CO/N=C/c1c(N)ncnc1Oc1ccc(NC(=O)NCCN(C)C)c(Cl)c1

IC50 [1]: 759 nM
SMILES: CO/N=C/c1c(N)ncnc1Oc1ccc(NC(=O)NCCCCN2CCCC2)c(Cl)c1

IC50 [1]: 142 nM
SMILES: CNC(=O)Nc1ccc(Oc2ncnc(N)c2/C=N/OC)c(F)c1

IC50 [1]: 7.9 nM
SMILES: CO/N=C/c1c(N)ncnc1Oc1ccc(NC(=O)Nc2ccccc2C)c(Cl)c1

IC50 [1]: 2210 nM
SMILES: CO/N=C/c1c(N)ncnc1Oc1ccc(NC(C)=O)cc1Cl

IC50 [1]: 25 nM
SMILES: CNC(=O)Nc1ccc(Oc2ncnc(N)c2/C=N/OC)cc1Cl

IC50 [1]: 3.3 nM
SMILES: CO/N=C/c1c(N)ncnc1Oc1ccc(NC(=O)Nc2ccccc2F)c(Cl)c1

IC50 [1]: 2 nM
SMILES: CO/N=C/c1c(N)ncnc1Oc1ccc(NC(=O)Nc2cc(C)on2)c(Cl)c1

IC50 [1]: 11 nM
SMILES: CO/N=C/c1c(N)ncnc1Oc1ccc(NC(=O)Nc2ccncc2)c(Cl)c1

SMILES: CCNC(=O)Nc1ccc(Oc2ncnc(N)c2/C=N/OC)cc1Cl
AUC [2]: 12305 ng·h/mL
IC50 [3]: 4800 nM
Activity [4]: inactive
F [5]: 30%
Activity [6]: Non-toxic
Cmax [7]: 1030 ng/mL
half-life [8]: 2.1 h
clearance [9]: 5.6 mL/min/kg
half-life [10]: 10 h
AUC [11]: 6114 ng·h/mL
IC50 [12]: 4420 nM
Activity [13]: inactive
inhibition (INH) [14]: 90%
clearance [15]: 7.4 mL/min/kg
IC50 [16]: 513 nM
Activity [17]: Dose-dependent effect
half-life [18]: 0.7 h
AUC [19]: 4799 ng·h/mL
half-life [20]: 2.8 h
Activity [21]: Dose-dependent effect
F [22]: 16%
Cmax [23]: 2990 ng/mL
Vd [24]: 0.7 L/kg
Cmax [25]: 2790 ng/mL
inhibition in vivo at 100 mg/kg [26]: 90%
inhibition (INH) [27]: 90%
Vd [28]: 0.4 L/kg
Cmax [29]: 5400 ng/mL

SMILES: CCNC(=O)Oc1ccc(Oc2ncnc(N)c2/C=N/OC)cc1
IC50 [1]: > 100000 nM

IC50 [1]: 3.4 nM
SMILES: CO/N=C/c1c(N)ncnc1Oc1ccc(NC(=O)Nc2nccs2)c(Cl)c1

IC50 [1]: 142 nM
SMILES: CCNC(=O)Nc1ccc(Oc2ncnc(N)c2/C=N/OC)cc1

IC50 [1]: 400 nM
SMILES: CO/N=C/c1c(N)ncnc1Oc1ccc(NC(=O)NCCCO)c(Cl)c1

IC50 [1]: 2.6 nM
SMILES: CO/N=C/c1c(N)ncnc1Oc1ccc(NC(=O)Nc2ccccc2Cl)c(Cl)c1

IC50 [1]: 19700 nM
SMILES: CNC(=O)Cc1ccc(Oc2ncnc(N)c2/C=N/OC)cc1

IC50 [1]: 6.5 nM
SMILES: CO/N=C/c1c(N)ncnc1Oc1ccc(NC(=O)NC2CCCCC2)c(Cl)c1

IC50 [1]: 73 nM
SMILES: CO/N=C/c1c(N)ncnc1Oc1ccc(NC(=O)NC(C)C)c(Cl)c1

IC50 [1]: 168 nM
SMILES: CO/N=C/c1c(N)ncnc1Oc1ccc(NC(=O)NCCO)c(Cl)c1

IC50 [1]: 2 nM
SMILES: CO/N=C/c1c(N)ncnc1Oc1ccc(NC(=O)Nc2nc(C)c(C)s2)c(Cl)c1

IC50 [1]: 10.3 nM
SMILES: CO/N=C/c1c(N)ncnc1Oc1ccc(NC(=O)NCc2ccc(F)cc2F)c(Cl)c1

IC50 [1]: 28 nM
SMILES: CCCNC(=O)Nc1ccc(Oc2ncnc(N)c2/C=N/OC)cc1Cl

IC50 [1]: 34 nM
SMILES: CO/N=C/c1c(N)ncnc1Oc1ccc(NC(=O)Nc2ccccn2)c(Cl)c1

IC50 [1]: 152 nM
SMILES: CO/N=C/c1c(N)ncnc1Oc1ccc(NC(=O)OC)cc1Cl

IC50 [1]: 180 nM
SMILES: CCNC(=O)Nc1ccc(Oc2ncnc(N)c2/C=N/OC)c(C)c1

IC50 [1]: 29 nM
SMILES: CO/N=C/c1c(N)ncnc1Oc1ccc(NC(=O)NC2CC2)c(Cl)c1

IC50 [1]: 10 nM
SMILES: CO/N=C/c1c(N)ncnc1Oc1ccc(NC(=O)Nc2cccnc2)c(Cl)c1

IC50 [1]: > 100000 nM
SMILES: CNC(=O)Nc1ccc(Oc2ncnc(N)c2/C=N/OC)c(Br)c1

IC50 [1]: 2.8 nM
SMILES: CO/N=C/c1c(N)ncnc1Oc1ccc(NC(=O)Nc2ccc(F)cc2)c(Cl)c1

IC50 [1]: 2.5 nM
SMILES: CO/N=C/c1c(N)ncnc1Oc1ccc(NC(=O)Nc2ccccc2OC)c(Cl)c1
